According to ChEMBL document CHEMBL1201862, “PubChem BioAssay data set” (2004):
Activity calls are given as the source filed them. Cut-off read from the data, not from the text of the source, for most assays here: actives have a measured IC50 and inactives only a lower limit.

Key:
SUMO-activating enzyme [1] = target: T1, SUMO-activating enzyme (Homo sapiens, UniProt Q9UBT2); assay: SUMOylation inhibitor hit validation, confirmation, SUMOylation inhibitor project, biochemical, AlphaScreen (AID 2018); assay type: functional
T1 sequence (Q9UBE0 whole entry): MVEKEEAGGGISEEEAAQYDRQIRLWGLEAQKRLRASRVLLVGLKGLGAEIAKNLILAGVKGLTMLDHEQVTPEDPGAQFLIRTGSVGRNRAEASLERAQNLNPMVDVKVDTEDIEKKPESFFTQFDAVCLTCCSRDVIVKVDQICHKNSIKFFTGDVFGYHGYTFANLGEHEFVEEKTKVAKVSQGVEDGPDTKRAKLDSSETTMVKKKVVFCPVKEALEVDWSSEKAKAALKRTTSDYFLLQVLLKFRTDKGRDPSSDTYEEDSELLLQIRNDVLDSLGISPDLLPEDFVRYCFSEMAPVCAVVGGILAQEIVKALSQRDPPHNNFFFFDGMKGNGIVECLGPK
T1 sequence (Q9UBT2 whole entry): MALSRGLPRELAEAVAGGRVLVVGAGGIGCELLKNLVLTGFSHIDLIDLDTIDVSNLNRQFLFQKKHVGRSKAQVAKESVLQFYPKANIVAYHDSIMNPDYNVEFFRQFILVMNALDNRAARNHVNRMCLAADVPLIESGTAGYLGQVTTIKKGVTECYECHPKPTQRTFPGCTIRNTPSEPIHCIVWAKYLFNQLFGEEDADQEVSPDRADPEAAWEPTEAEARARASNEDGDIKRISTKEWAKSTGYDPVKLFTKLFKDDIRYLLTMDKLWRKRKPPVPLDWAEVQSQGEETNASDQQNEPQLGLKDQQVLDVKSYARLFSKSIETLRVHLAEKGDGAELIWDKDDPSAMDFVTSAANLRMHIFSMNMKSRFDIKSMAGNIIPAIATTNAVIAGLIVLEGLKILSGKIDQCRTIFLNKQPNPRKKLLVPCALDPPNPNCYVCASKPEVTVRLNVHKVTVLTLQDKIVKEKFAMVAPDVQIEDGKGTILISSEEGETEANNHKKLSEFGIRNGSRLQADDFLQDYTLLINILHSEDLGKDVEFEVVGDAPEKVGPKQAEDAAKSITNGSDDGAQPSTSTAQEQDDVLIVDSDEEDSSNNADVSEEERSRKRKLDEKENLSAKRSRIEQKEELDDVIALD

SUMO-activating enzyme [2] = target: T1, SUMO-activating enzyme; assay: inhibitors of in vitro SUMOylation cascade, primary screen, biochemical, HTRF, uHTS (AID 2006); assay type: protein-complex assay
SUMO E1/E2 = SUMO E1/E2 (Homo sapiens, UniProt P63279+Q9UBE0+Q9UBT2); assay: SAR analysis of SUMOylation using HTRF in an in-Vitro dose response assay. [Related pubchem assays (depositor defined):AID2006, AID2011, AID2018, AID2069, AID2658]; assay type: functional
Sequence of SUMO E1/E2 (Q9UBE0 whole entry, the tested form may be a part): as the sequence (Q9UBE0 whole entry) above
Sequence of SUMO E1/E2 (Q9UBT2 whole entry, the tested form may be a part): as the sequence (Q9UBT2 whole entry) above
Sequence of SUMO E1/E2 (P63279 whole entry, the tested form may be a part): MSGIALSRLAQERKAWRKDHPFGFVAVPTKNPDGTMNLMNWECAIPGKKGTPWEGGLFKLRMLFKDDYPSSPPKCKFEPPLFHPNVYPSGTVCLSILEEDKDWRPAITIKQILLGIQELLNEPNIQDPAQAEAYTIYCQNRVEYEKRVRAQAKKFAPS

[3] = target: T2, Carboxy-terminal domain RNA polymerase II polypeptide A small phosphatase 1 (Homo sapiens, UniProt Q9GZU7); assay: inhibitors of CTDSP1, concentration-response testing, biochemical assay, absorbance-based, actives from ultra-high-throughput screening (AID 540297); assay type: functional
T2 sequence (Q9GZU7 whole entry): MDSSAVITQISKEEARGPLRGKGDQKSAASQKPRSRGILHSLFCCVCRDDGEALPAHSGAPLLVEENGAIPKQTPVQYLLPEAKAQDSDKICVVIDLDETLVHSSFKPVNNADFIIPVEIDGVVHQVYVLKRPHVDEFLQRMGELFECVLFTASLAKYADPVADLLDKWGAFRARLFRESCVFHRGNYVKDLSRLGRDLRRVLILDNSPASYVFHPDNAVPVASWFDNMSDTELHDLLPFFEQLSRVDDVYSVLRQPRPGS

HEK293 [4] = assay: NOD1 signaling inhibitors, primary screen, cell-based, luminescence, uHTS (AID 1578); assay type: functional; conditions: Homo sapiens
HEK293 [5] = assay: cells; assay type: functional, cell-based; conditions: Homo sapiens
HEK293 [6] = assay: cells; assay type: functional, cell-based; conditions: Homo sapiens; remark: listed apart in the source
HEK293 [7] = assay: NOD2 signaling inhibitors in MDP-stimulated cells, cell-based, uHTS, luminescence (AID 2001); assay type: functional; conditions: Homo sapiens
[8] = target: Lysine-specific demethylase 4C (Homo sapiens, UniProt Q9H3R0); assay: GASC-1 (JMJD2C) histone demethylase inhibitors, dose response, biochemical, DELFIA europium, cherry-picked samples (AID 488835); assay type: functional
Sequence of Lysine-specific demethylase 4C (Q9H3R0 whole entry): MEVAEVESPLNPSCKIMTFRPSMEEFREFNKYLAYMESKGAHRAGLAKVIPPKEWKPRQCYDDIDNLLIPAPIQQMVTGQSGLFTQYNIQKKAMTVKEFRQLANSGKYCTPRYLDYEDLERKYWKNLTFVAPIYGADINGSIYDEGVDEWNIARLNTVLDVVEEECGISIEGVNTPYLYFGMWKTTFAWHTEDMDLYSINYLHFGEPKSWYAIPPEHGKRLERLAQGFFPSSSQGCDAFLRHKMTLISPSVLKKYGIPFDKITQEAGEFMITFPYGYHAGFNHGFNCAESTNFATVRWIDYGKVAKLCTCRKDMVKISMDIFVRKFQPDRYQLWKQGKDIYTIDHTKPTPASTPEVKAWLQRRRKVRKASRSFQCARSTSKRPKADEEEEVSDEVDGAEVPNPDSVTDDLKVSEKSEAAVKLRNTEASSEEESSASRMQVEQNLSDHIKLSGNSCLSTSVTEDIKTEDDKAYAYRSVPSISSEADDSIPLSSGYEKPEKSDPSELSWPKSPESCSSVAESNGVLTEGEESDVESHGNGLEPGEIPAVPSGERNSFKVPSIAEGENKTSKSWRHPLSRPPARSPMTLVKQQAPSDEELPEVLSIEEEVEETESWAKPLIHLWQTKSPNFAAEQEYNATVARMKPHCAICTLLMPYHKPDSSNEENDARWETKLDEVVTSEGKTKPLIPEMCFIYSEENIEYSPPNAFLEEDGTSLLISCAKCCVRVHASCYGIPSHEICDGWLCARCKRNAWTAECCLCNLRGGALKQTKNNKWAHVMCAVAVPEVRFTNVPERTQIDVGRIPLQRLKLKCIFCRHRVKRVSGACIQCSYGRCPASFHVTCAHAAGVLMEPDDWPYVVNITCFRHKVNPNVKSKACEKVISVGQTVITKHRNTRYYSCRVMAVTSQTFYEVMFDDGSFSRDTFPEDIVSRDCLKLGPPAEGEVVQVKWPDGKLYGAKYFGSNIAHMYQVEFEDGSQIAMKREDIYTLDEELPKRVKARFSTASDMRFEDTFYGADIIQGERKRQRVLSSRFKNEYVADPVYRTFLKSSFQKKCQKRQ

[9] = target: T3, Tyrosine-protein phosphatase non-receptor type 7 (Homo sapiens, UniProt P35236); assay type: functional
T3 sequence (P35236 whole entry): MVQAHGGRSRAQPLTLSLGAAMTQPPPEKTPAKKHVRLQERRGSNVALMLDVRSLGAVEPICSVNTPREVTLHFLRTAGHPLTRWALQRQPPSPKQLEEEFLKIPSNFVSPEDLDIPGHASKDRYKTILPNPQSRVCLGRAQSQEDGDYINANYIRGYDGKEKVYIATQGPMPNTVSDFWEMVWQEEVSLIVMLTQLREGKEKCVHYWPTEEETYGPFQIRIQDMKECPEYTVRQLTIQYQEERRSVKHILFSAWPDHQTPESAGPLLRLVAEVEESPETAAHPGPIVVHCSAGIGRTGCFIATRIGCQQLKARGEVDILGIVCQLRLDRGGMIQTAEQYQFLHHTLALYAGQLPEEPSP

[10] = target: T4, Tyrosine-protein phosphatase non-receptor type 22 (Homo sapiens, UniProt Q9Y2R2); assay type: functional
T4 sequence (Q9Y2R2 whole entry): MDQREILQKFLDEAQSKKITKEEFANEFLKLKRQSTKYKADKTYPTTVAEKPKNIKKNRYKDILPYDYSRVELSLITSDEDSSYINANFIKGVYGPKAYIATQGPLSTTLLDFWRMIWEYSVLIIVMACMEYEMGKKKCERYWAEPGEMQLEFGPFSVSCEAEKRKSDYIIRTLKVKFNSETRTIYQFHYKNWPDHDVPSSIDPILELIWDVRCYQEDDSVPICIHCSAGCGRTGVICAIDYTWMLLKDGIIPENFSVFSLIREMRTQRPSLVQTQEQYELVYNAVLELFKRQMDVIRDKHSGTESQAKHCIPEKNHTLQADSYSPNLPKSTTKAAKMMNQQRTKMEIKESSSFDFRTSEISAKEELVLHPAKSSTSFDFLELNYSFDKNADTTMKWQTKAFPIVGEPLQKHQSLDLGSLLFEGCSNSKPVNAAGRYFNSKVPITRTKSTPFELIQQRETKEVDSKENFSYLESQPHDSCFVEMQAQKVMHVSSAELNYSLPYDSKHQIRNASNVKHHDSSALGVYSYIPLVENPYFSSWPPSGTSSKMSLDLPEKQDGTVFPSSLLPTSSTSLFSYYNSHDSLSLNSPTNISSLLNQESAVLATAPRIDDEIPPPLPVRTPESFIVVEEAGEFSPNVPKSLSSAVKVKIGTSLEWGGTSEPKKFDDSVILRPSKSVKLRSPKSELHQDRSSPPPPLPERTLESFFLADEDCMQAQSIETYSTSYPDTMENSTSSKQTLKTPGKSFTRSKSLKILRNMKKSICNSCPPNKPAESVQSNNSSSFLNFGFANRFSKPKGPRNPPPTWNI

[11] = target: T4, Tyrosine-protein phosphatase non-receptor type 22; assay type: functional; remark: listed apart in the source
[12] = target: Nucleotide-binding oligomerization domain-containing protein 2 (Homo sapiens, UniProt Q9HC29); assay: NOD2 signaling inhibitors, cell-based, luminescence, uHTS, HEK293 (AID 1566); assay type: functional
Sequence of Nucleotide-binding oligomerization domain-containing protein 2 (Q9HC29 whole entry, the tested form may be a part): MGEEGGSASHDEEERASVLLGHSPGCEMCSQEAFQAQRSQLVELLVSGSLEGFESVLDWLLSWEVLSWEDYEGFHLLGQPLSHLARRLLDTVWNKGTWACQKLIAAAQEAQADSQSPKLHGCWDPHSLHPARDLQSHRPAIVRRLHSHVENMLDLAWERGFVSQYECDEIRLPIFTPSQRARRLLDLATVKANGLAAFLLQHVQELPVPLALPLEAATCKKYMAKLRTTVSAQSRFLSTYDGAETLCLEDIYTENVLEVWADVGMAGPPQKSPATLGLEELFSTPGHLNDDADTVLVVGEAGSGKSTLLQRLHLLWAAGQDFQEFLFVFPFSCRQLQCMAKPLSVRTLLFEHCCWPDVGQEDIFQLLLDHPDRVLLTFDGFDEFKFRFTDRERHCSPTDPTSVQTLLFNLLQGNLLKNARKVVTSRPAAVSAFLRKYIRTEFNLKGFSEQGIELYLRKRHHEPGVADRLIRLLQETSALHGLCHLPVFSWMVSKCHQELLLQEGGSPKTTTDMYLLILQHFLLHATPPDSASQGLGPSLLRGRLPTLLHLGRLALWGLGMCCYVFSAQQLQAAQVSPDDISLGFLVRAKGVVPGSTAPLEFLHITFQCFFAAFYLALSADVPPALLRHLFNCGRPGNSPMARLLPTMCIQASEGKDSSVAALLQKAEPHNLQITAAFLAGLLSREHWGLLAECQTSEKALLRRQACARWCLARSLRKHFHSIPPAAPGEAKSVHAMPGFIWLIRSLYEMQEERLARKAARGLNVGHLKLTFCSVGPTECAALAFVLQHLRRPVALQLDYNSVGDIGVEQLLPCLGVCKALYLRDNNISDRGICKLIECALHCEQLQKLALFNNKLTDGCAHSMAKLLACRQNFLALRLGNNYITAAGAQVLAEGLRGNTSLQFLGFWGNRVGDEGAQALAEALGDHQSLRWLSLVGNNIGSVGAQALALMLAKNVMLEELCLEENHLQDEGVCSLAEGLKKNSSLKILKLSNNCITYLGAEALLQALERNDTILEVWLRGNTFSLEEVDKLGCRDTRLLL

HEK293 [13] = assay: cells; assay type: functional, cell-based; conditions: Homo sapiens; remark: listed apart in the source
[14] = target: T5, Nucleotide-binding oligomerization domain-containing protein 1 (Homo sapiens, UniProt Q9Y239); assay: NOD1 signaling inhibitors, SAR follow-up, revised (AID 2333); assay type: functional
T5 sequence (Q9Y239 whole entry): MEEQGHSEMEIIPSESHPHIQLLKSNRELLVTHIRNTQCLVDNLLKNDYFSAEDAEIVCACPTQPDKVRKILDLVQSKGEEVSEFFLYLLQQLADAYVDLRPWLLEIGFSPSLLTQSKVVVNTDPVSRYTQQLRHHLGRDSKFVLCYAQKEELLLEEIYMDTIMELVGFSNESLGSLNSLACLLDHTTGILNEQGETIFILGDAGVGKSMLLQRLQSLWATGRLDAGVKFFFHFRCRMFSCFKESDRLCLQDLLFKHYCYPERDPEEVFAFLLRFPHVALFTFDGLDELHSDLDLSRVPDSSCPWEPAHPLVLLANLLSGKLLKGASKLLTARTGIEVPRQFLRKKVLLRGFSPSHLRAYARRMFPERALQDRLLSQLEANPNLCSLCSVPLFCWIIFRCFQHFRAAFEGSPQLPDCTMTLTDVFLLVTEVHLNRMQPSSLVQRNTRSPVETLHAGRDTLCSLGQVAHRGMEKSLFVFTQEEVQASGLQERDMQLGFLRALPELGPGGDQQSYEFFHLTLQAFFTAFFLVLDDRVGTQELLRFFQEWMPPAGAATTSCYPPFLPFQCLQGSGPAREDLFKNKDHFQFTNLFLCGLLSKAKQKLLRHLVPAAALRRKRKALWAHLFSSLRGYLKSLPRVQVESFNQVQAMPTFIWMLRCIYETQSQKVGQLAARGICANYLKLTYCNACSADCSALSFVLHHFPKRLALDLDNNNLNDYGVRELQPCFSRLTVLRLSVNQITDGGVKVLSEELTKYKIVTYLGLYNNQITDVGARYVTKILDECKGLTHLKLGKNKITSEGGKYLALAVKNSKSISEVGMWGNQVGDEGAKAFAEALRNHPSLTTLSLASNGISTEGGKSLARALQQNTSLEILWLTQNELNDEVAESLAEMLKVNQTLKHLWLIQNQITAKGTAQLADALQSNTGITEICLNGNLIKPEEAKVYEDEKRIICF

[15] = Shn3 3'UTR reporter inhibitors, dose response, cell-based, Clone20 osteoblasts, firefly luciferase, cherry-picked (AID 624132); assay type: functional;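 note: firefly luciferase luminescence from reporter carrying the Shn3 3'UTR in osteoblasts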
[16] = HepG2 cell cytotoxicity, dose response, cytotoxicity control for Shn3 inhibitor project, CellTiter-Glo, cherry-picked (AID 624134); assay type: functional, cell-based
[17] = control 3'UTR Renilla luciferase suppression, dose response, counter-screen for Shn3 inhibitor project, cell-based, Clone20-Shn3RL, cherry-picked (AID 624133); assay type: functional
[18] = target: T6, RNA-binding protein pos-1 (Caenorhabditis elegans, UniProt G5EF15); assay: inhibitors of POS-1/mex-3 RNA binding, dose response, biochemical, fluorescence polarization (AID 1964);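 note: purified POS-1 fused to maltose binding protein made in E. coli; potency of compounds blocking POS-1 binding to fluorescent RNA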
T6 sequence (G5EF15 whole entry): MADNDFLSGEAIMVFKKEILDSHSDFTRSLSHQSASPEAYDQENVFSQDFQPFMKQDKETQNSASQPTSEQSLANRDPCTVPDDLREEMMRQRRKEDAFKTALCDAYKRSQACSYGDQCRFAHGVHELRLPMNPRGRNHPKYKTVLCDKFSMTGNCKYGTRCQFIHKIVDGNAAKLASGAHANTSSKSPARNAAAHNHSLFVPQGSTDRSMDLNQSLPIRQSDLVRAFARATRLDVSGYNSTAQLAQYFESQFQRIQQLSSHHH

[19] = target: T7, Zinc finger protein mex-5 (Caenorhabditis elegans, UniProt Q9XUB2); assay: MEX-5/TCR-2 RNA interaction inhibitors, dose response, biochemical, C. elegans, fluorescence polarization (AID 1960)
T7 sequence (Q9XUB2 whole entry): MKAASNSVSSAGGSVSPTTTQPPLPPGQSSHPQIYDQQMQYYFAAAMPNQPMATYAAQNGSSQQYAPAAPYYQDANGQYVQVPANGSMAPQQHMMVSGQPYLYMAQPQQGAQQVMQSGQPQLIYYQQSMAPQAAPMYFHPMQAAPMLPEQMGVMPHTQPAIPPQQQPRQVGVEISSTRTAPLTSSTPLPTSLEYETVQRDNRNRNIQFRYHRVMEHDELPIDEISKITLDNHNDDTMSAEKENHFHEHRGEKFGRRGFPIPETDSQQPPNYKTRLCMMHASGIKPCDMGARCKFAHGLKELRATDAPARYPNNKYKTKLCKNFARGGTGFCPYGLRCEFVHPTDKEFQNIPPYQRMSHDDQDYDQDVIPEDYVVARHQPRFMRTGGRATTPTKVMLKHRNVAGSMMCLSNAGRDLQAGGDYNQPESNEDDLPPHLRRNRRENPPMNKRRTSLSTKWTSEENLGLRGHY

[20] = target: Alkaline phosphatase, placental type (Homo sapiens, UniProt P05187); assay: PLAP enzyme inhibitors, confirmation, biochemical, luminescence (AID 1512); assay type: functional
Sequence of Alkaline phosphatase, placental type (P05187 whole entry): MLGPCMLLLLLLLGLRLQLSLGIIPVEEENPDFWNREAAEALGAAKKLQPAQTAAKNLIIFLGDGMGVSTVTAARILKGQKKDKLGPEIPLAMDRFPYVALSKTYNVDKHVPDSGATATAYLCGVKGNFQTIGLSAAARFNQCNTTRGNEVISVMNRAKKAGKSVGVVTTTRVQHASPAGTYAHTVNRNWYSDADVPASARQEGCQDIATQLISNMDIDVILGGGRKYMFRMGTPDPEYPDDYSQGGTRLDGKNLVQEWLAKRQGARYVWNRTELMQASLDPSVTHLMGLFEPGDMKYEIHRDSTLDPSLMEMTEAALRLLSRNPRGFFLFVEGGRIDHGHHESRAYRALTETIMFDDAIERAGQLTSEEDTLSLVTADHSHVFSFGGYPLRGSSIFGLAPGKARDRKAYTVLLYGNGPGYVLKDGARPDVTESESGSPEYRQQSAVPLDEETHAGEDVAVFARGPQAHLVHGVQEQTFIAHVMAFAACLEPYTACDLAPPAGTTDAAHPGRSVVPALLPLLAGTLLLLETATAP

[21] = target: T8, Alkaline phosphatase, tissue-nonspecific isozyme (Homo sapiens, UniProt P05186); assay: human TNAP enzyme inhibitors, SAR follow-up, biochemical, luminescent, dose response (AID 1056)
T8 sequence (P05186 whole entry): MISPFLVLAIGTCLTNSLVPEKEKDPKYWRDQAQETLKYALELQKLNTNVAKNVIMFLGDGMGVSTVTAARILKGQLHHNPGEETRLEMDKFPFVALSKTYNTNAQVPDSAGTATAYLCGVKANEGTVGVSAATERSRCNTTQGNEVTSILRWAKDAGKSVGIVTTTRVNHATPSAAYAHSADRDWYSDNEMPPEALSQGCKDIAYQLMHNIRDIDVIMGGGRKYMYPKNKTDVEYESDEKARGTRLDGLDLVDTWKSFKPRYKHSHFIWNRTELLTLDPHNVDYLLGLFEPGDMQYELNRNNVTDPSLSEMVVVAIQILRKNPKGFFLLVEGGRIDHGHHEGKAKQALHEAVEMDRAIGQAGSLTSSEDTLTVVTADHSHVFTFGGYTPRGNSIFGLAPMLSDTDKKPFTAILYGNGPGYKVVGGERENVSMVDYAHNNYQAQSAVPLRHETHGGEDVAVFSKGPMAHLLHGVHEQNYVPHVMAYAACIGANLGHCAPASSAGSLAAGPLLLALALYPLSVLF

SMILES: Cc1ccccc1NC(=O)Cn1c(O)c(N=NC(=O)c2ccccc2O)c2ccccc21
- IC50 (SUMO-activating enzyme [1]): 8.06 µM (active)
- IC50 (SUMO-activating enzyme [2]): 9.83 µM (active)
- IC50 (SUMO E1/E2): 49.7 µM (active)
- IC50 [3]: 1.23 µM (active)

SMILES: CN(C)S(=O)(=O)N1CCC(Oc2cccc(C(=O)NC3CCCCC3)c2)CC1
- EC50 (HEK293 [4]): 6.77 µM (active)
- IC50 (HEK293 [5]): 11.3 µM (active)
- IC50 (HEK293 [6]): 18.8 µM (active)
- IC50 (HEK293 [7]): 17.5 µM (inactive)

SMILES: O=c1cc(N2CCc3ccccc32)[nH]c(=O)n1-c1ccccc1
- AC50 [8]: 20.7 µM (active)

SMILES: COc1ccc(Cl)cc1-c1nc(N)nc(NC2CCCCC2)n1
- IC50 [9]: > 79.4 µM (inactive)
- IC50 [10]: > 79.4 µM (inactive)
- IC50 [11]: > 79.4 µM (inactive)

SMILES: COc1cc(CC2C(=O)N(C)C(=O)N(C)C2=O)ccc1OCc1ccccc1
- AC50 [8]: 7.97 µM (active)

SMILES: CC1=C(C(=O)NC2CCCc3c2cnn3-c2cccc(C)c2C)OCCO1 (stereo not given)
- EC50 (HEK293 [4]): 5.36 µM (active)
- EC50 [12]: > 20 µM (inactive)
- IC50 (HEK293 [7]): 11.6 µM (inactive)
- IC50 (HEK293 [13]): > 20 µM (inactive)
- IC50 [14]: 4.06 µM (active)
- AC50 [15]: 3.49 µM (active)
- AC50 [16]: 34.1 µM (active)
- AC50 [17]: 3.14 µM (active)

SMILES: COCCn1c(=N)c(S(=O)(=O)c2ccc(Br)cc2)cc2c(=O)n3ccccc3nc21
- EC50 [18]: > 300 µM (inconclusive)
- IC50 [9]: > 79.4 µM (inactive)
- EC50 [19]: 4.16 µM (active)
- IC50 [10]: > 79.4 µM (inactive)
- IC50 [11]: > 79.4 µM (inactive)

SMILES: COc1ccc(-c2cc(C(=O)NCCc3ccc(O)c(O)c3)c3ccccc3n2)cc1
- IC50 [20]: > 100 µM (inactive)
- IC50 [21]: > 100 µM (inactive)

SMILES: CCOc1ccc(-n2c(SCC(=O)c3ccc(O)c(O)c3)nnc2-c2ccc(OC)cc2)cc1
- IC50 [20]: > 100 µM (inactive)
- IC50 [21]: > 100 µM (inactive)
